Assay results published in PMC4947982 (Journal of Medicinal Chemistry, 2016).

settings: 5 mM DMSO-solutions

Solubility in DMSO, low solubility:
CC(C)(C)c1ccc(-c2cn(-c3cc(C(=O)O)cc(-c4ccc(C5CCNCC5)cc4)c3)nn2)cc1 [Compound 79, 5-(4-(4-(tert-Butyl)phenyl)-1H-1,2,3-triazol-1-yl)-4′-(piperidin-4-yl)-[1,1′-biphenyl]-3-carboxylic Acid]
CCCCCOc1ccc(-c2cn(-c3cc(C(=O)O)cc(-c4ccc(C5CCNCC5)cc4)c3)nn2)cc1 [Compound 82, 5-(4-(4-(Pentyloxy)phenyl)-1H-1,2,3-triazol-1-yl)-4′-(piperidin-4-yl)-[1,1′-biphenyl]-3-carboxylic Acid]
COc1ccc(-c2cn(-c3cc(C(=O)O)cc(-c4ccc(C5CCNCC5)cc4)c3)nn2)cc1OC [Compound 95, 5-(4-(3,4-Dimethoxyphenyl)-1H-1,2,3-triazol-1-yl)-4′-(piperidin-4-yl)-[1,1′-biphenyl]-3-carboxylic Acid]
O=C(O)c1cc(-c2ccc(C3CCNCC3)cc2)cc(-n2cc(-c3cc4ccccc4o3)nn2)c1 [Compound 101, 5-(4-(Benzofuran-2-yl)-1H-1,2,3-triazol-1-yl)-4′-(piperidin-4-yl)-[1,1′-biphenyl]-3-carboxylic Acid]
